By IC50 is commonly meant the point on the concentration scale where inhibition reaches its midpoint. A high value points to weaker potency in that assay.

One test concerns H9c2. In words: cardiomyocyte survival under oxidative or metabolic stress – cell-based, panel, H9c2 and HL-1, H2O2, 2-deoxyglucose, ATP luminescence, SAR follow-up (AID 651642).
The test system of another test is HL-1. Described as above.
The mark [1] stands for this setting: H9c2/HL-1 cardiomyocyte 2-deoxyglucose damage, run 1, with 2-deoxyglucose.
Where [2] appears, read: H9c2/HL-1 cardiomyocyte 2-deoxyglucose damage, run 2, with 2-deoxyglucose.
[3] abbreviates: H9c2/HL-1 cardiomyocyte 2-deoxyglucose damage, run 3, with 2-deoxyglucose.
Where [4] appears, read: H9c2/HL-1 cardiomyocyte 2-deoxyglucose damage, run 4, with 2-deoxyglucose.
The mark [5] stands for this setting: H9c2/HL-1 cardiomyocyte H2O2 oxidative damage, mean of runs, with H2O2, mean IC50 across panel.
[6] abbreviates: H9c2/HL-1 cardiomyocyte H2O2 oxidative damage, run 1, with H2O2.
Setting [7] is: H9c2/HL-1 cardiomyocyte H2O2 oxidative damage, run 2, with H2O2.
The mark [8] stands for this setting: H9c2/HL-1 cardiomyocyte H2O2 oxidative damage, run 3, with H2O2.
Setting [9] is: H9c2/HL-1 cardiomyocyte H2O2 oxidative damage, run 4, with H2O2.
Setting [10] is: H9c2/HL-1 cardiomyocyte 2-deoxyglucose damage, mean of runs, with 2-deoxyglucose, mean IC50 across panel.

`CCOC(=O)c1cccc(NC(=O)c2cc(-c3cc(OC)c(OC)c(OC)c3)nc3ccc(OC)cc23)c1`: the IC50 in the test on H9c2 (setting [1]) was > 79 µM; in the test with H9c2 (setting [2]), 24.6 µM; in the test on H9c2 (setting [3]) it was 35.6 µM; with H9c2 (setting [4]), 44.4 µM; in the test with H9c2 (setting [5]), 2.56 µM; in the test on H9c2 (setting [6]), 2.7 µM. The IC50 with H9c2 (setting [7]) is 2.92 µM; with H9c2 (setting [8]), 2.05 µM; in the test with H9c2 (setting [9]), 2.56 µM; with HL-1 (setting [1]), 2.77 µM; with HL-1 (setting [2]), 2.79 µM; in the test on HL-1 (setting [3]), > 79 µM. Further, the IC50 is > 79 µM in the test on HL-1 (setting [4]); 4.24 µM with HL-1 (setting [6]); 4.51 µM in the test on HL-1 (setting [7]); > 79 µM in the test on HL-1 (setting [8]); 2.3 µM in the test with HL-1 (setting [9]).

Turning to `COc1cc(-c2cc(C(=O)NCC(=O)Nc3cccc(C(C)=O)c3)c3cccc(Cl)c3n2)cc(OC)c1OC`, the IC50 in the test on H9c2 (setting [1]) is > 79 µM; in the test on H9c2 (setting [2]), 32.2 µM; in the test with H9c2 (setting [3]), 7.32 µM; in the test on H9c2 (setting [4]), 8.12 µM; in the test on H9c2 (setting [5]), 0.651 µM; in the test on H9c2 (setting [6]), 2.72 µM. Further, the IC50 in the test on H9c2 (setting [7]) is 3.44 µM; in the test with H9c2 (setting [8]), 2.56 µM; in the test on H9c2 (setting [9]), 3.46 µM; in the test with HL-1 (setting [10]), 6.58 µM; with HL-1 (setting [1]), 5.45 µM; in the test on HL-1 (setting [2]), 9.03 µM. For the same molecule, the IC50 was 5.38 µM with HL-1 (setting [3]); 6.47 µM with HL-1 (setting [4]); > 79 µM with HL-1 (setting [6]); > 79 µM in the test on HL-1 (setting [7]); 4.06 µM in the test with HL-1 (setting [8]); 6.82 µM with HL-1 (setting [9]).

Regarding `COc1ccc2c(c1OC)C(=O)N1c3ccccc3C(=O)N(Cc3c(Cl)cccc3Cl)C21` (configuration not stated), the IC50 with H9c2 (setting [10]) was > 79 µM; in the test with H9c2 (setting [1]) it was > 79 µM; with H9c2 (setting [2]), > 79 µM; in the test on H9c2 (setting [3]), > 79 µM; in the test on H9c2 (setting [4]), > 79 µM; in the test on H9c2 (setting [6]), 3.42 µM. Further, the IC50 with H9c2 (setting [7]) was 3.73 µM; in the test with H9c2 (setting [8]) it was > 79 µM; in the test on H9c2 (setting [9]) it was > 79 µM; with HL-1 (setting [1]) it was 6.31 µM; in the test with HL-1 (setting [2]) it was 6.5 µM; with HL-1 (setting [3]) it was > 79 µM. The IC50 in the test with HL-1 (setting [4]), with HL-1 (setting [5]), in the test with HL-1 (setting [6]), in the test on HL-1 (setting [7]), in the test on HL-1 (setting [8]) and in the test with HL-1 (setting [9]) was > 79 µM each time.

As for `COc1cc(-c2cc(C(=O)Nc3cccc(C(N)=O)c3)c3ccccc3n2)cc(OC)c1OC`, the IC50 with H9c2 (setting [1]) was 31.1 µM; in the test with H9c2 (setting [2]) it was 31.3 µM; with H9c2 (setting [3]) it was > 79 µM; in the test on H9c2 (setting [4]), > 79 µM; with H9c2 (setting [5]), 2.42 µM; with H9c2 (setting [6]), 2.23 µM. The IC50 in the test with H9c2 (setting [7]) worked out at 2.4 µM; in the test with H9c2 (setting [8]), 2.49 µM; in the test on H9c2 (setting [9]), 2.57 µM; with HL-1 (setting [10]) it was 14.2 µM; in the test on HL-1 (setting [1]) it was 7.32 µM; in the test on HL-1 (setting [2]) it was 8.09 µM. Moreover, the IC50 in the test with HL-1 (setting [3]) worked out at 19.2 µM; in the test on HL-1 (setting [4]), 22.1 µM; in the test on HL-1 (setting [5]), 4.97 µM; in the test with HL-1 (setting [6]), 4.52 µM; in the test with HL-1 (setting [7]), 5.96 µM; with HL-1 (setting [8]), 2.31 µM. In the test with HL-1 (setting [9]), this molecule yielded an IC50 of 7.08 µM.

Turning to `COc1cc(-c2cc(C(=O)NCC(=O)Nc3ccc(C(C)=O)cc3)c3cc(C)ccc3n2)cc(OC)c1OC`, the IC50 is 5.83 µM in the test on H9c2 (setting [10]); 6.75 µM in the test with H9c2 (setting [1]); 8.1 µM in the test on H9c2 (setting [2]); 3.5 µM in the test on H9c2 (setting [3]); 4.96 µM in the test with H9c2 (setting [4]); 1.67 µM with H9c2 (setting [5]). The IC50 in the test with H9c2 (setting [6]) is 2.04 µM; in the test on H9c2 (setting [7]), 2.05 µM; with H9c2 (setting [8]), 1.09 µM; in the test on H9c2 (setting [9]), 1.49 µM; in the test on HL-1 (setting [10]) it was 4.22 µM; with HL-1 (setting [1]), 2.65 µM. For the same molecule, the IC50 in the test on HL-1 (setting [2]) is 2.65 µM; in the test with HL-1 (setting [3]), 5.75 µM; in the test on HL-1 (setting [4]), 5.85 µM; in the test on HL-1 (setting [5]) it was 3.93 µM; with HL-1 (setting [6]), 3.02 µM; in the test with HL-1 (setting [7]), 3.88 µM. Besides, the figures for the IC50 with HL-1 (setting [8]) and with HL-1 (setting [9]) were 3.17 µM and 5.63 µM, respectively.

For the molecule `COc1cc(-c2cc(C(=O)Nc3cccc(C(=O)O)c3)c3ccccc3n2)cc(OC)c1OC`, the IC50 in the test on H9c2 (setting [10]), in the test on H9c2 (setting [1]), with H9c2 (setting [2]), with H9c2 (setting [3]), in the test with H9c2 (setting [4]) and in the test with H9c2 (setting [5]) was > 79 µM in each case. The IC50 in the test with H9c2 (setting [6]), in the test on H9c2 (setting [7]), in the test with H9c2 (setting [8]), in the test with H9c2 (setting [9]), with HL-1 (setting [10]) and in the test on HL-1 (setting [1]) was > 79 µM in each case. The IC50 in the test on HL-1 (setting [2]), in the test with HL-1 (setting [3]), with HL-1 (setting [4]), with HL-1 (setting [5]), in the test with HL-1 (setting [6]) and with HL-1 (setting [7]) was > 79 µM each time. Besides, the IC50 in the test on HL-1 (setting [8]) and in the test on HL-1 (setting [9]) was > 79 µM in each case.

(Values after PubChem BioAssay AID651642 (Sanford-Burnham Center for Chemical Genomics, 2012).)
